From US20080280879A1, “SUBSTITUTED HETEROCYCLIC DERIVATIVES AND THEIR PHARMACEUTICAL USE AND COMPOSITIONS” (priority 2007, published 2008)
≈ marks a conversion by molar mass, not a printed value.

Key:
Type in all cases: cell-based, Staphylococcus aureus
[1] = system: Staph aureus 2812; assay: MIC, microtiter broth dilution (CLSI M7-A7), Assay 1, Table 12 column E, no serum; settings: for MIC: Staphylococcus aureus, 2812, Staph aureus 2812, Assay 1, no serum; for MIC, column E: Staph aureus 2812, Assay 1, no serum
Procedure, shortened: (§1)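 Staphylococcus aureus susceptibility is measured by CLSI M7-A7 broth microdilution in microtiter trays. For serum testing, bacteria are inoculated into Mueller-Hinton Broth containing 50% pooled inactivated human serum. The MIC in μg/ml is the lowest concentration preventing visible growth.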

[2] = system: Staph aureus 2811; assay: MIC, microtiter broth dilution (CLSI M7-A7), Assay 1, Table 12 column D, no serum; settings: for MIC: Staphylococcus aureus, 2811, Staph aureus 2811, Assay 1, no serum; for MIC, column D: Staph aureus 2811, Assay 1, no serum
Procedure, shortened: as §1

[3] = system: Staph aureus 1095 MRSA; assay: MIC, microtiter broth dilution (CLSI M7-A7), Assay 1, Table 12 column A, no serum; settings: Assay 1, no serum; for MIC: Staphylococcus aureus, MRSA
Procedure, shortened: as §1

[4] = system: Staph aureus 1146; assay: MIC in Mueller-Hinton Broth with 50% pooled inactivated human serum, Assay 1, Table 12; settings: for MIC: Staphylococcus aureus, 1146, Staph aureus 1146, Assay 1, 50% human serum, read-out: MIC, column C; for MIC, column C: Staph aureus 1146, Assay 1, 50% human serum
Procedure, shortened: as §1

[5] = system: Staph aureus 1146; assay: MIC, microtiter broth dilution (CLSI M7-A7), Assay 1, Table 12 column B, no serum; settings: for MIC: Staphylococcus aureus, 1146, Staph aureus 1146, Assay 1, no serum; for MIC, column B: Staph aureus 1146, Assay 1, no serum
Procedure, shortened: as §1

Row | MIC [1] | MIC [2] | MIC [3] | MIC [4] | MIC [5] | SMILES | MIC, column E [1] | MIC, column D [2] | MIC, column A [3] | MIC, column C [4] | MIC, column B [5]
1 | 1 µg/mL (≈ 1.96 µM) | 0.25 µg/mL (≈ 0.491 µM) | 1 µg/mL (≈ 1.96 µM) | > 64 µg/mL | 0.5 µg/mL (≈ 0.982 µM) | COc1ccc2ncc(Cl)c(CCCC3(C(=O)O)CCN(C4CC(c5ccccc5)C4)CC3O)c2c1 (stereo not shown) [Example 109, 4-[3-(3-chloro-6-methoxyquinolin-4-yl)propyl]-3-hydroxy-1-(3-phenylcyclobutyl)piperidine-4-carboxylic acid] |  |  |  |  | 
2 | > 64 µg/mL | > 64 µg/mL | > 64 µg/mL | > 64 µg/mL | 32 µg/mL (≈ 66.6 µM) | COc1ccc2nccc(C(O)CC[C@@H]3CCN(C4CC(c5nnc(C)o5)C4)C[C@@H]3C(=O)O)c2c1 (stereo partly drawn) [Example 110, (3R,4R)-4-[3-hydroxy-3-(6-methoxyquinolin-4-yl)propyl]-1-[3-(5-methyl-1,3,4-oxadiazol-2-yl)cyclobutyl]piperidine-3-carboxylic acid] |  |  |  |  | 
3 | 1 µg/mL (≈ 2.18 µM) | 1 µg/mL (≈ 2.18 µM) | 4 µg/mL (≈ 8.7 µM) | > 64 µg/mL | 2 µg/mL (≈ 4.35 µM) | COc1ccc2ncnc(CCCC3(C(=O)O)CCN(C4CC(c5ccccc5)C4)CC3)c2c1 (stereo not shown) [Example 111, 4-[3-(6-methoxyquinazolin-4-yl)propyl]-1-(3-phenylcyclobutyl)piperidine-4-carboxylic acid] |  |  |  |  | 
4 | 16 µg/mL (≈ 33.4 µM) | 8 µg/mL (≈ 16.7 µM) | 32 µg/mL (≈ 66.7 µM) | 64 µg/mL (≈ 133 µM) | 8 µg/mL (≈ 16.7 µM) | COc1ccc2nccc(C(O)CC[C@@H]3CCN(C4CC(c5cc(C)no5)C4)C[C@@H]3C(=O)O)c2c1 (stereo partly drawn) [Example 115, (3R,4R)-4-[3-hydroxy-3-(6-methoxyquinolin-4-yl)propyl]-1-[3-(3-methylisoxazol-5-yl)cyclobutyl]piperidine-3-carboxylic acid] |  |  |  |  | 
5 | 1 µg/mL (≈ 2.18 µM) | 1 µg/mL (≈ 2.18 µM) | 2 µg/mL (≈ 4.36 µM) | > 64 µg/mL | 1 µg/mL (≈ 2.18 µM) | COc1ccc2ccnc(CCCC3(C(=O)O)CCN(C4CC(c5ccccc5)C4)CC3)c2c1 (stereo not shown) [Example 121, 4-[3-(7-methoxyisoquinolin-1-yl)propyl]-1-(3-phenylcyclobutyl)piperidine-4-carboxylic acid] |  |  |  |  | 
6 | 2 µg/mL (≈ 4.21 µM) | 1 µg/mL (≈ 2.1 µM) | 4 µg/mL (≈ 8.41 µM) | 16 µg/mL (≈ 33.6 µM) | 4 µg/mL (≈ 8.41 µM) | COc1ccc2nccc([C@@H](O)CNC3CCN([C@H]4C[C@H](c5ccccc5)C4)CC3C(=O)O)c2c1 (stereo partly drawn) [Example 122, 4-{[(2R)-2-hydroxy-2-(6-methoxyquinolin-4-yl)ethyl]amino}-1-(trans-3-phenylcyclobutyl)piperidine-3-carboxylic acid] |  |  |  |  | 

Continued, compound first:

Row | SMILES | MIC [1] | MIC [2] | MIC [3] | MIC [4] | MIC [5] | MIC, column E [1] | MIC, column D [2] | MIC, column A [3] | MIC, column C [4] | MIC, column B [5]
7 | COc1ccc2ncc(F)c(CCCC3(C(=O)O)CCN(C4CC(c5nc(C)no5)C4)CC3)c2c1 (stereo not shown) [Example 98, 4-[3-(3-fluoro-6-methoxyquinolin-4-yl)propyl]-1-[3-(3-methyl-1,2,4-oxadiazol-5-yl)cyclobutyl]piperidine-4-carboxylic acid] | 4 µg/mL (≈ 8.29 µM) | 2 µg/mL (≈ 4.14 µM) | 4 µg/mL (≈ 8.29 µM) | 64 µg/mL (≈ 133 µM) | 2 µg/mL (≈ 4.14 µM) |  |  |  |  | 
8 | COC(=O)[C@H]1CN(C2CC(c3nnc(C)o3)C2)CC[C@H]1CCC(O)c1ccnc2ccc(OC)cc12 (stereo partly drawn) [Example 99, methyl (3R,4R)-4-[3-hydroxy-3-(6-methoxyquinolin-4-yl)propyl]-1-[3-(5-methyl-1,3,4-oxadiazol-2-yl)cyclobutyl]piperidine-3-carboxylate] | > 64 µg/mL | 64 µg/mL (≈ 129 µM) | 64 µg/mL (≈ 129 µM) | > 64 µg/mL | 16 µg/mL (≈ 32.3 µM) |  |  |  |  | 
9 | COc1ccc2ncc(Cl)c(CCNC3(C(=O)O)CCN(C4CC(c5ccccc5)C4)CC3)c2c1 (stereo not shown) [Example 100, 4-{[2-(3-chloro-6-methoxyquinolin-4-yl)ethyl]amino}-1-(3-phenylcyclobutyl)piperidine-4-carboxylic acid] | 0.5 µg/mL (≈ 1.01 µM) | 0.25 µg/mL (≈ 0.506 µM) | 0.5 µg/mL (≈ 1.01 µM) | > 64 µg/mL | 0.5 µg/mL (≈ 1.01 µM) |  |  |  |  | 
10 | COc1ccc2ncc(Cl)c(CCNC3CCN(C4CC(c5ccccc5)C4)C(C(=O)O)C3)c2c1 (stereo not shown) [Example 101, (2,4)-4-{[2-(3-chloro-6-methoxyquinolin-4-yl)ethyl]amino}-1-(3-phenylcyclobutyl)piperidine-2-carboxylic acid] |  |  |  |  |  | <=.0625 μg/ml | <=.0625 μg/ml | 0.125 µg/mL (≈ 0.253 µM) | 2 µg/mL (≈ 4.05 µM) | 0.125 µg/mL (≈ 0.253 µM)
11 | COc1ccc2nccc(C(O)CC[C@@H]3CCN(C4CC(c5nc(C)no5)C4)C[C@@H]3C(=O)O)c2c1 (stereo partly drawn) [Example 102, (3R,4R)-4-[3-hydroxy-3-(6-methoxyquinolin-4-yl)propyl]-1-[3-(3-methyl-1,2,4-oxadiazol-5-yl)cyclobutyl]piperidine-3-carboxylic acid] | 16 µg/mL (≈ 33.3 µM) | 8 µg/mL (≈ 16.6 µM) | 16 µg/mL (≈ 33.3 µM) | 64 µg/mL (≈ 133 µM) | 16 µg/mL (≈ 33.3 µM) |  |  |  |  | 
12 | COc1ccc2nccc(C(O)CC[C@@H]3CCN(C4CC(Cc5ccccc5)C4)C[C@@H]3C(=O)O)c2c1 (stereo partly drawn) [Example 103, (3R,4R)-1-(3-benzylcyclobutyl)-4-[3-hydroxy-3-(6-methoxyquinolin-4-yl)propyl]piperidine-3-carboxylic acid] | 0.25 µg/mL (≈ 0.512 µM) | 0.25 µg/mL (≈ 0.512 µM) | 0.5 µg/mL (≈ 1.02 µM) | 4 µg/mL (≈ 8.19 µM) | 0.25 µg/mL (≈ 0.512 µM) |  |  |  |  | 
13 | COc1ccc2nccc(C(O)CC[C@@H]3CCN(C4CC(Oc5ccccn5)C4)C[C@@H]3C(=O)O)c2c1 (stereo partly drawn) [Example 104, (3R,4R)-4-[3-hydroxy-3-(6-methoxyquinolin-4-yl)propyl]-1-[3-(pyridin-2-yloxy)cyclobutyl]piperidine-3-carboxylic acid] | > 64 µg/mL | > 64 µg/mL | > 64 µg/mL | > 64 µg/mL | > 64 µg/mL |  |  |  |  | 
14 | COC(=O)[C@H]1CN(C2CC(c3cc(C)no3)C2)CC[C@H]1CCC(O)c1ccnc2ccc(OC)cc12 (stereo partly drawn) [Example 105, methyl (3R,4R)-4-[3-hydroxy-3-(6-methoxyquinolin-4-yl)propyl]-1-[3-(3-methylisoxazol-5-yl)cyclobutyl]piperidine-3-carboxylate] | 2 µg/mL (≈ 4.05 µM) | 2 µg/mL (≈ 4.05 µM) | 1 µg/mL (≈ 2.03 µM) | > 64 µg/mL | 2 µg/mL (≈ 4.05 µM) |  |  |  |  | 
15 | COc1ccc2ncc(F)c(CCCC3(C(=O)O)CCN(C4CC(c5ccccc5)C4)CC3)c2n1 (stereo not shown) [Example 106, 4-(3-(3-fluoro-6-methoxy-1,5-naphthyridin-4-yl)propyl)-1-(3-phenylcyclobutyl)piperidine-4-carboxylic acid] | ≤ 0.0625 µg/mL | ≤ 0.0625 µg/mL | ≤ 0.0625 µg/mL | 32 µg/mL (≈ 67 µM) | ≤ 0.0625 µg/mL |  |  |  |  | 
16 | COc1ccc2nccc(CCCC3(C(=O)O)CCN(CC4CC4c4ccccc4)CC3)c2c1 (stereo not shown) [Example 107, 4-[3-(6-methoxyquinolin-4-yl)propyl]-1-{[(1,2)-2-phenylcyclopropyl]methyl}piperidine-4-carboxylic acid] |  |  |  |  |  | 16 µg/mL (≈ 34.9 µM) | 64 µg/mL (≈ 140 µM) | 64 µg/mL (≈ 140 µM) | >64 µg/mL | 64 µg/mL (≈ 140 µM)
17 | COc1ccc2ncc(Cl)c(CCCC3(C(=O)O)CCN(C4CC(c5ccccc5)C4)CC3)c2c1 (stereo not shown) [Example 108, 4-[3-(3-chloro-6-methoxyquinolin-4-yl)propyl]-1-(3-phenylcyclobutyl)piperidine-4-carboxylic acid] | ≤ 0.0625 µg/mL | ≤ 0.0625 µg/mL | ≤ 0.0625 µg/mL | 64 µg/mL (≈ 130 µM) | ≤ 0.0625 µg/mL |  |  |  |  | 
